Assay results: article PMC12281424, “A Rac-specific competitive inhibitor of guanine nucleotide binding reduces metastasis in triple-negative breast cancer” (Cell Reports Medicine, 2025)

Key:
4T1 tumor cells = assay: Syngeneic breast cancer model; format: in vivo, mouse; conditions: BALB/c mice
Method: Figure 6 A41 decreases metastasis of TNBC cells in vivo (A) Representative images of luciferase bioluminescence intensities (BLI) in whole body, legs, and ovaries/uterus 4 weeks after resection of MD1-MB-468 Luc tumor in NMRI nude mice not treated (control) and treated with A41 (25 mg/kg/day, intraperitoneally for 4 weeks). (B) Metastasis frequency quantification based on ex vivo BLI measurements in indicated organs from control (black bars) and A41-treated mice 4 weeks after tumor resection (white bars) (N = 10–15 mice; ∗p < 0.05 vs. controls). (C) BLI quantification in legs and ovaries/uterus from control (black squares) and A41-treated (white squares) NMRI nude mice 4 weeks after tumor resection (N = 10–15 mice; ∗p < 0.05 vs. controls). (D) Cumulative proportion of immunocompetent control (red) and A41-treated mice (blue) displaying regrowth of the primary tumor after its resection. (E) Metastasis frequency quantified from ex vivo BLI measurements in leg bones, lungs, kidneys, and ovaries/uterus from immunocompetent control (black bar) and A41-treated (white bar) mice (N = 10 mice; ∗p < 0.05 vs. control). (F) Survival curve of immunocompetent control (red) and A41-treated mice (blue) after primary tumor resection (day 0).
To circumvent this limitation and evaluate if the immune system could affect the anti-metastatic property of A41, we evaluated its effect in a syngeneic model. We injected murine 4T1 tumor cells into the mammary fat pad of immunocompetent BALB/c mice.

RAC1 = RAC1 (Homo sapiens, UniProt P63000); assay: Nucleotide exchange kinetics (mant-GTP/mant-GDP fluorescence); format: biochemical; set-up: Full-length RAC1 carrying a 6xHis tag in C-terminus was purified as previously described; 6xHis (C); made in house
Method: Figure 2 Identification of a new RAC1 inhibitor (A) Effect of A41 and NSC23766 on ruffle formation (white arrows) induced by EGF (10 ng/mL) in NIH 3T3 cells in serum-free culture medium (CTL). Inhibitors were added at indicated concentration 1 h prior to EGF stimulation. To assess cytoskeleton organization, cells were incubated with Alexa Fluor 488 phalloidin to visualize F-actin. Results shown are representative of 3 independent experiments. Corresponding concentration-response curves have been established by counting the percentages of cells with ruffles (scale bars: 10 μm). (B) Immunoblot analysis and associated quantification of RAC-GTP level and total RAC expression in NIH 3T3 cells stimulated by EGF (10 ng/mL, 5 min) and pre-incubated or not (−) with NSC23766, A41, or A415 at 10^−5 M for 1 h (∗∗∗p < 0.001 vs. controls without EGF stimulation, ^###p < 0.001 vs. controls with EGF stimulation) (N > 3). (C) Representative surface plasmon resonance (SPR) sensograms of binding of immobilized RAC1 with increasing concentrations of A41 with or without EDTA (20 mM) (N > 3). (D) Representative in vitro nucleotide exchange catalyzed by the DH-PH of TIAM (10 nM) measured by the binding of fluorescent mant-GTP (1 μM) to RAC1 (0.5 μM, preloaded with GDP) in the presence of indicated concentrations of A41 (out of N = 6). Dotted lines correspond to the experimental curves, and continuous lines represent the fit of experimental points. (E) Kobs and Kmax were determined in each condition (N = 6). (F) Predicted binding modes of A4 to the NSC23766-binding site (left) or the GDP-binding pocket of RAC1 (right). In the NSC23766-binding site of RAC1, the compound A4 (carbon atoms in blue) makes 2 hydrogen bonds (green dotted line) with Ser71 (S71) and 10 hydrophobic interactions (pink dotted line) with Ala3 (A3), Lys5 (K5), Val36 (V36), Trp56 (W56), Tyr64 (Y64), and Leu67 (L67) leading to a docking score of −6.03 kcal/mol. The GDP molecule is shown with fine line. The P loop is shown in yellow, the switch 1 in orange, and the switch 2 in green. In the GDP-binding pocket, A4 establishes 6 hydrogen bonds with Gly15 (G15), Lys16 (K16), Cys18 (C18), and Lys116 (K116), 1 carbon hydrogen bond with Lys116, and 9 hydrophobic interactions with Cys18, Ile33 (I33), Lys116, Leu119 (L119), and Leu160 (L160), resulting in a docking score of −10.32 kcal/mol.
Figure 3 Inhibitory mechanism of A41 (A–D) RAC1 activity was monitored by the change in mant-GTP/GDP fluorescence induced by its binding to or releasing from RAC1 (A–D). GDP-bound RAC1 (0.5 μM) was incubated with TRIO (10 nM) and the indicated concentrations of mant-GTP without and with A41 (5 μM) (A–C). Mant-GDP-bound RAC1 (0.5 μM) was incubated with TRIO (10 nM) and GTP (1 μM) without and with A41 (5 μM) (D). AU: arbitrary fluorescence units. All experiments were done in triplicate. Kmax and Kmin are expressed as mean ± SEM. ∗∗p < 0.01 and ∗∗∗p < 0.001 vs. TRIO. (E) Deconvoluted mass spectra generated from crude mass spectrum analyses to evaluate RAC1 photolabeling with [N3]-A41 by LC-HRMS on native protein. (F) Representative mass spectra of both labeled and unlabeled […] peptide during LC-HRMS analysis of RAC1 photolabeling with [N3]-A41 after trypsin digestion. (G) Predicted binding mode of A41 to the GDP-binding pocket of RAC1. Compound A41 (orange) makes 4 hydrogen bonds (green dotted line) with Lys16 (K16), Cys18 (C18), and Lys116 (K116), 2 carbon hydrogen bond (light green dotted line) with Val14 (V14) and Lys116 (K116), and 7 hydrophobic interactions (pink dotted line) with Cys18 (C18), Phe28 (F28), Lys116 (K116), Ala159 (A159), and Leu160 (L160). The P loop is shown in yellow, the switch 1 in orange, and the switch 2 in green.
Full-length RAC1 carrying a 6xHis tag in C-terminus was purified as previously described.[64] Full-length RAC2, RHOG, RHOA and CDC42 were purified as previously described.[64]^,[65] […]

MYO3B(h) = MYO3B(h) (Homo sapiens, UniProt Q8WXR4); assay: Kinase Profiler; format: biochemical
MYO3B(h), sequence (Q8WXR4 whole entry): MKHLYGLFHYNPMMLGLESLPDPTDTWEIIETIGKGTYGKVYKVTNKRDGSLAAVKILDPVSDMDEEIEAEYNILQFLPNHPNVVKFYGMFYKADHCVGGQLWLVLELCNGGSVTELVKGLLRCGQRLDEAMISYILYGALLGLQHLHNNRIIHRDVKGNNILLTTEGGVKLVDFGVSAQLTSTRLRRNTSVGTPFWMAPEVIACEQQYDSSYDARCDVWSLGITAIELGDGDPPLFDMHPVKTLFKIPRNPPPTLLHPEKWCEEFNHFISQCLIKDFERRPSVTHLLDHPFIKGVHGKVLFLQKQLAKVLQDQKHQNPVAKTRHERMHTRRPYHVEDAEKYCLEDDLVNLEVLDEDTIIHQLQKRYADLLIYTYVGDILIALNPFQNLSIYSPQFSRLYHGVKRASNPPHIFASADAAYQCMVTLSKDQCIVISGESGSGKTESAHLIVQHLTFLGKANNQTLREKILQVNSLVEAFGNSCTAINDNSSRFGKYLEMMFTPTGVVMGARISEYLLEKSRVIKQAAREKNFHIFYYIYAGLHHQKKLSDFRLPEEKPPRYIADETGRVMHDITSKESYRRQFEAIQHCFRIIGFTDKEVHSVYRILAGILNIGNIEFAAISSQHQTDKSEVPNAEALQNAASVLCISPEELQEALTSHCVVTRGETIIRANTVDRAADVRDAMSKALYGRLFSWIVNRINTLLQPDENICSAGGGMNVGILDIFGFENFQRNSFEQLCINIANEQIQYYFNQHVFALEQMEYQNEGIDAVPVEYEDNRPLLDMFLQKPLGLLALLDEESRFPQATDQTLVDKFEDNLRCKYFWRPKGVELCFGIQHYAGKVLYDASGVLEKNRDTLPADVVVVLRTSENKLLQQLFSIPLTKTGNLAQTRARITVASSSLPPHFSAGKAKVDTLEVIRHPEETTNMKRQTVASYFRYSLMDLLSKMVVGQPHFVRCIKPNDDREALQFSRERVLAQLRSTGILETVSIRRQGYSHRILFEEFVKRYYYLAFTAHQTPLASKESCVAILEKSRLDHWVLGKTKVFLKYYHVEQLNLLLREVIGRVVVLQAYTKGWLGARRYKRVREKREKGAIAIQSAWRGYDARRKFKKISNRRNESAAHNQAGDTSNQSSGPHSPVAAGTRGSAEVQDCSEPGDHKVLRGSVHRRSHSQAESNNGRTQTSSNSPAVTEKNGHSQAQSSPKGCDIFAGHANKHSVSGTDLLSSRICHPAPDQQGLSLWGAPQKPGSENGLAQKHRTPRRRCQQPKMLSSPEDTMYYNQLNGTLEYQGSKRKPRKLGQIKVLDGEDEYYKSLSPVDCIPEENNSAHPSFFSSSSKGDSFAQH
Method: (§1) The kinase profiler was performed by the company Eurofins (Discovery, Panlab and Cerep).

[1] = biological target: Protein Tyrosine Kinase, Insulin Receptor (Homo sapiens, UniProt P06213); assay: Safety screen; format: biochemical
Protein Tyrosine Kinase, Insulin Receptor, sequence (P06213 28-1382): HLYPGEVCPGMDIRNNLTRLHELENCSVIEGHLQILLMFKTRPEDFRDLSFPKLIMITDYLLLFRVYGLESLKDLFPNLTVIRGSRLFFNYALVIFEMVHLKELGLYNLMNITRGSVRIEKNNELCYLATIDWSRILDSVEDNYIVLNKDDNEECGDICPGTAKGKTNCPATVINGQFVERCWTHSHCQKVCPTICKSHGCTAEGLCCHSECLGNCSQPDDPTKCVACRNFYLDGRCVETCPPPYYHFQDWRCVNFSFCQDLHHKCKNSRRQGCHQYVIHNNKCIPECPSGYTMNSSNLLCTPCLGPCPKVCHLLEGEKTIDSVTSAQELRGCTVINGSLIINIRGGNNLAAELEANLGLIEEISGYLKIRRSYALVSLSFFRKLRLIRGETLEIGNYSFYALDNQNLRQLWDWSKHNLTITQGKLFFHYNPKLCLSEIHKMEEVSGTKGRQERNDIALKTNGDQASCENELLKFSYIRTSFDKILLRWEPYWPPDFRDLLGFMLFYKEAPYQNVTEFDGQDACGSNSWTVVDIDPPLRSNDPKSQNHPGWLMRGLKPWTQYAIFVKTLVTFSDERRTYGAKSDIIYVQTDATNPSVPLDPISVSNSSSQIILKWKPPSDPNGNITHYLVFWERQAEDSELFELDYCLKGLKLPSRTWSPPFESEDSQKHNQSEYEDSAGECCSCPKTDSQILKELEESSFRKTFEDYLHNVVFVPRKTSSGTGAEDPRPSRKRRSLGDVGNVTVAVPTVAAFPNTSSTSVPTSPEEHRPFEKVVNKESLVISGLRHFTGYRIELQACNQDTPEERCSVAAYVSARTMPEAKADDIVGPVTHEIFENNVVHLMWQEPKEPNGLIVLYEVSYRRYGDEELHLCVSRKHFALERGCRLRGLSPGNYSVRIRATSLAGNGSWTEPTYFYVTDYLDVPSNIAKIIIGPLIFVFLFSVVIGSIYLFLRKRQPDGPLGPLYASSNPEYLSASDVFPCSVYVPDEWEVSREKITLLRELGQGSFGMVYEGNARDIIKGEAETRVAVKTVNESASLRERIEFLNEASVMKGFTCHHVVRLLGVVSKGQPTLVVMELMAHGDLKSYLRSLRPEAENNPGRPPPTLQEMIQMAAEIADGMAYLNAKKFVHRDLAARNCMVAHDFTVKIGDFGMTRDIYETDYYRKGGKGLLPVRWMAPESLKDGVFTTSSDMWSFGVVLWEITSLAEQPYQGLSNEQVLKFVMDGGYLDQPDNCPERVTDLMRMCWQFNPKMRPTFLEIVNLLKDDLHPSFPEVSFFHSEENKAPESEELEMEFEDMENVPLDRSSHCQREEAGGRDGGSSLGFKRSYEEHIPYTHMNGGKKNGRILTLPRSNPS
Method: as §1

CaMKIIγ(h) = CaMKIIγ(h) (Homo sapiens, UniProt Q13555); assay: Kinase Profiler; format: biochemical
CaMKIIγ(h), sequence (Q13555 whole entry): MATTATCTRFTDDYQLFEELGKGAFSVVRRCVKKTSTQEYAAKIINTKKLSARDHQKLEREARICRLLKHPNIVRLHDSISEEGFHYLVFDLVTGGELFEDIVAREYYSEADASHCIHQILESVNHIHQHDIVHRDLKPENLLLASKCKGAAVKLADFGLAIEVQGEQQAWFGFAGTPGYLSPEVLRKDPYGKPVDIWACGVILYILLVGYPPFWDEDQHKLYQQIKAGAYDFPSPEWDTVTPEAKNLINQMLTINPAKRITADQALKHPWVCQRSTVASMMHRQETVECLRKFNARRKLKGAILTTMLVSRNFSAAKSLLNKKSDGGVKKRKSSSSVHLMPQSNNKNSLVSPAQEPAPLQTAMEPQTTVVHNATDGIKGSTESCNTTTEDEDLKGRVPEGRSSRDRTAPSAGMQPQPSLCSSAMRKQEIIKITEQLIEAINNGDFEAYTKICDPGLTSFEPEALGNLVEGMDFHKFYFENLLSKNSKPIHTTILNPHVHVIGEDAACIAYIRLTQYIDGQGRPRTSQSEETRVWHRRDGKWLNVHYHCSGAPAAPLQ
Method: as §1

Compound: COc1ccc(OC)c(NS(=O)(=O)c2ccc(NC(=O)CCSc3ccc(C)cc3)cc2)c1 [Compound A41]
- frequency of primary tumor re-growth (mice with regrowth) (4T1 tumor cells; 4 weeks post resection): 40%
- survival rate (4T1 tumor cells; 4 weeks post resection): 80%
- metastasis frequency (4T1 tumor cells; after primary tumor resection): significantly reduced metastasis frequency
- Inhibition of RAC1 activity (nucleotide exchange assay) (RAC1): 46%
- TRIO-induced GDP dissociation (RAC1; A41 5 μM, mant-GDP-bound RAC1, GTP 1 μM): no effect
- inhibitory effect on TRIO-induced nucleotide exchange (RAC1; A41 5 μM, mant-GTP 5 μM): abolished
- inhibitory effect on TRIO-induced nucleotide exchange (RAC1; A41 5 μM, mant-GTP increased from 1 to 2.5 μM): strongly decreased
- plateau (Kmax) of nucleotide exchange (RAC1; TIAM DH-PH 10 nM, mant-GTP 1 μM, concentration-dependent): decreased the plateau
- spontaneous activity of RAC1 (RAC1; no GEF): without affecting
- Activity(%) (MYO3B(h)): 106%
- % inh. [1]: -25%
- Activity(%) (CaMKIIγ(h)): 92%
